Data from PMC5797143, “Epigenetic modulation of inflammation and synaptic plasticity promotes resilience against stress in mice” (Nature Communications, 2018).

Experiments:
[1] = tested on: IL-6; test: LPS-induced IL-6 production in PBMCs (screening, dose response); type: cell-based, mouse
Source text: BDPP contains a variety of polyphenols. Orally consumed polyphenols are typically bioavailable in various organs and tissues as metabolites (phase II polyphenol conjugates and phenolic acids) following xenobiotic metabolism and gastrointestinal microbiome fermentation. It is possible that some metabolites may counteract the positive effect of the others. Therefore, if supplied as BDPP, the overall benefits might be reduced due to potential ‘cancellation’ effects. By identifying individual metabolites that selectively target key pathological mechanisms (e.g., Rac1 and IL-6) we can greatly improve the efficacy. We and others recently identified 21 BDPP-derived phenolic metabolites that accumulate in blood and/or in the CNS (14 polyphenolic metabolites and 7 phenolic acids, Supplementary Table 1)[25], [28], [33], among which 14 are currently accessible, [34]. We initiated a high-throughput screen of these metabolites for their ability to modulate IL-6 and Rac1. Peripheral blood mononuclear cells (PBMCs) isolated from C57BL/6 mice were pretreated with plasma bioavailable metabolites (Supplementary Table 1) for 16 h followed by stimulation with lipopolysaccharide (LPS) for 16 h. […] In parallel studies, we screened 9 brain bioavailable metabolites using E18 MSN-enriched primary culture.
Whole blood from mice was mixed with complete RPMI media and laid over the Ficoll-Paque Plus (GE Healthcare, Sweden), centrifuged at 2200 r.p.m. for 15 min. The buffy coat containing PBMCs were isolated, washed once with BEP (0.5% BSA, 2 mM EDTA in PBS) and plated out in a 24-well plate at 5 × 10^5/well in culture medium RPMI-1640 supplemented with 20% horse serum, 10% FBS, 2 mM L-glutamine, 25 mM Hepes and 100 U/ml penicillin/streptomycin. PBMCs were treated with various phenolic acids for 16 h and challenged with 7.5 µg/ml LPS. Supernatant was collected by centrifugation following 16 h of LPS stimulation and the levels of IL-6 were measured using the Mouse IL-6 Quantikine ELISA Kit from R & D System.

[2] = tested on: 37 monoaminergic receptors and transporters; test: Radioligand binding assay, whole panel; conditions: concentrations as high as 10 µM
Method: Currently available antidepressants are believed to act by modifying the activity of the brain monoaminergic system, [47]. We evaluated whether Mal-gluc and DHCA directly interact with the monoaminergic system using a radioligand binding assay.
Radioligand binding assays were performed as previously described. Briefly, crude membrane fractions prepared from a stable HEK cell line expressing recombinant receptors were mixed with a radiolabeled specific ligand and 10 µM of competitor compound (DHCA, Mal-gluc, or non-specific ligand). The percentage of radioligand binding was subsequently measured.

[3] = tested on: DNA-methyltransferase 1 (DNMT1); test: Expression of DNA methylation/demethylation enzymes in PBMCs; type: cell-based, mouse
Method: (§1) To investigate how DHCA may attenuate IL-6 generation, we tested the effect of DHCA on Toll-like receptor-4 mediated signaling pathways. PBMCs were pretreated with DHCA and stimulated with LPS using the same protocol as during screening. Samples were taken at 0, 30 min, 60 min, 6 h and 16 h following LPS stimulation and cell lysates were subjected to a multiplex ELISA assay. […] Based on evidence that DNA methylation at a single CpG in the human IL-6 promoter region effectively alters IL-6 expression, we next tested whether DHCA can modulate IL-6 gene expression through methylation mechanisms. We treated PBMC cells with DHCA and measured the expression of enzymes essential for DNA methylation/demethylation. […] To investigate how methylation influences IL-6 gene expression, we employed the CpG-free luciferase reporter system. […] To test whether DHCA may influence the expression of other pro-inflammatory factors, we measured the level of secreted cytokines following LPS stimulation (Supplementary Fig. 3).
Total RNA from MSN-enriched cultures or brain NAc was isolated using the RNeasy Mini Kit (Qiagen, Valencia, CA, USA) and reverse transcribed. Gene expression was measured in four replicates by quantitative RT-PCR using Maxima SYBR Green master mix (Fermentas) in ABI Prism 7900HT. […]

[4] = tested on: pro-inflammatory cytokines; test: Secreted cytokines of PBMCs following LPS stimulation (multiplex); type: cell-based, mouse
Method: as §1, with “system. We cloned a ~280 bp CpG rich DNA segment from the mouse IL-6 promoter into a promoterless CpG-free reporter construct and transfected into N2a cells. We found the CpG-rich IL-6 promoter segment presented no inherent promoter activity as reflected by no differences in luciferase activity compared to the control construct (Fig. 2f).” for “system.”, “3). […]” for “3).”

[5] = Plasma protein binding, mouse plasma; type: in vitro ADME
Method: Compound stability in mouse and human plasma and in mouse brain homogenate were conducted, [45]. Specifically, Mal-gluc or DHCA was incubated in duplicate with plasma at 37 °C and samples were taken at various time points and mixed with three volumes of ice-cold Stop Solution (methanol containing propranolol, diclofenac, or other internal standard). Samples were centrifuged to remove precipitated protein, and the supernatants were analyzed by LC/MS/MS to quantitate for remaining test compound. Data are converted to percentage remaining by dividing by the time zero concentration value. Data are fit to a first-order decay model to determine half-life. Plasma protein binding were conducted using both mouse and human plasma.

[6] = tested on: enzymes involved in de novo methylation and demethylation; test: Expression of de novo methylation/demethylation enzymes in MSN-enriched primary culture; type: cell-based, mouse; conditions: MSN-enriched primary cultures
Source text: Stress-induced reduction of Rac1 expression is associated with a repressed chromatin state surrounding the promoter region of Rac1 in the NAc[11]. Since Mal-gluc can cross the BBB, we hypothesized that Mal-gluc may promote Rac1 expression, in part, by modulating chromatin acetylation. We first assessed the effect of Mal-gluc on HDACs that play key roles in chromatin deacetylation. […] Using site directed quantitative chromatin immunoprecipitation (qCHIP), we examined the permissive histone H3 acetylation (AcH3) in Mal-gluc treated MSN-enriched primary cultures.
Total RNA from MSN-enriched cultures or brain NAc was isolated using the RNeasy Mini Kit (Qiagen, Valencia, CA, USA) and reverse transcribed. Gene expression was measured in four replicates by quantitative RT-PCR using Maxima SYBR Green master mix (Fermentas) in ABI Prism 7900HT. Primer sequences are listed in Supplementary Table 2. Mouse hypoxanthine phosphoribosyltransferase (HPRT) expression level was used as an internal control. Data were normalized using the 2^-ΔΔCt method. Levels of target gene mRNAs were expressed relative to those in control cultures or mice and plotted in GraphPad Prism.

Row | Compound | primary screening, LPS-induced IL-6 production ([1]; 14 plasma bioavailable metabolites screened) | IC50 ([1]; Mus musculus, PBMC, PBMCs pretreated 16 h, then LPS 16 h, read-out: calculated IC50, reducing LPS-induced IL-6 production) [µM] | EC50 ([1]; Mus musculus, PBMC, dose response in PBMCs following LPS stimulation, read-out: EC50 (IL-6 response), Fig. 2b) [µM] | binding with any of the 37 receptors and transporters tested [2] | expression of DNMT1 [3] | cytokine expression profile ([4]; PBMCs in the absence of LPS stimulation) | LPS-induced production of cytokines (GM-CSF, IL-1β, IL-12 p40 and p70, IL-17, MCP-1) ([4]; PBMCs with LPS stimulation) | Plasma protein binding, Mean fraction unbound (mouse plasma) [5] [%] | expression of enzymes of de novo methylation and demethylation [6]
1 | O=C(O)CCc1ccc(O)c(O)c1 [DHCA, 3(3,4-dihydroxy-phenyl) propionic acid] | most effective in reducing LPS-induced IL-6 production | 17.7 | 17.7 | no significant binding | significantly reduced | did not influence cytokine expression profile | significantly reduced LPS-induced production of cytokines |  | 
2 | COc1cc(-c2[o+]c3cc(O)cc(O)c3cc2O[C@@H]2O[C@H](CO)[C@@H](O)[C@H](O)[C@H]2O)cc(OC)c1O [Mal-gluc] |  |  |  |  |  |  |  | 55.70 | did not affect
